Results on one compound are retold here after US6902741B1, “Laminates containing an active substance transdermal system” (Jenapharm GmbH & Co. KG, priority 1999, dated 2005).

Each structure is given as a SMILES string.

The format of the series is physicochemical. An excerpt:
In this manner, by use of solid polymer inclusions, optimum active substance loadings can be attained in different polymers. The active substance concentrations in the polymer inclusions can be stabilized at a very high level so that only minimum amounts of additional solvent are needed. In cases where the solubility of the drug in the adhesive is the primary factor limiting skin permeation, the method of preparation described under B) must be chosen.
When such solid active substance inclusions are introduced into adhesive matrix solutions in dissolved form, the high solubility of the inclusion polymer in the matrix solvent used, for example ethyl acetate, ethanol etc, is important. Rapid dissolution of the amorphous active substance is attained to a level far above its saturation solubility in the pure solvent. For example, at room temperature ethyl acetate dissolves only about 3 wt. % of a gestagenic steroid. By use of a corresponding solid active substance solution, the solubility of the steroid in the solution of ethyl acetate and nonadhesive polymer was increased to nearly 15 wt. % and kept stable. It should be kept in mind in this respect that, based on the volatile solvent ethyl acetate which is to be driven off from the adhesive matrix that is to be dried, the solubility was increased to more than 30 wt. %. […]

Turning to `C#C[C@]1(O)C=C[C@H]2[C@@H]3CCC4=CC(=O)CC[C@@H]4[C@H]3CC[C@@]21CC` [gestodene], the “solubility in ethyl acetate” value is given as 3%.
